Assay results published in patent US6913925B1, “Human mesencephalon cell lines and methods of use therefor” (Signal Pharmaceuticals LLC, priority 1998, dated 2005).

B1: CNTF: ciliary neurotrophic factor (protein, UniProt P26441 1-200, looked up)
Ciliary neurotrophic factor: MAFTEHSPLTPHRRDLCSRSIWLARKIRSDLTALTESYVKHQGLNKNINLDSADGMPVASTDQWSELTEAERLQENLQAYRTFHVLLARLLEDQQVHFTPTEGDFHQAIHTLLLQVAAFAYQIEELMILLEYKIPRNEADGMPINVGDGGLFEKKLWGLKVLQELSQWTVRSIHDLRFISSHQTGIPARGSHYIANNKKM
B2: GDNF: glial cell-derived neurotrophic factor (protein, UniProt P39905 78-211, looked up)
Glial cell line-derived …: SPDKQMAVLPRRERNRQAAAANPENSRGKGRRGQRGKNRGCVLTAIHLNVTDLGLGYETKEELIFRYCSGSCDAAETTYDKILKNLSRNRRLVSDKVGQACCRPIAFDDDLSFLDDNLVYHILRKHSAKRCGCI

These molecules were tested on immortalized human mesencephalon cells (assay: Differentiation of conditionally-immortalized human mesencephalon cell lines into neurons). Details: added together: forskolin 10 μM, GDNF 20 ng/mL, CNTF 20 ng/mL, IGF-I 100 ng/mL, BDNF 20 ng/mL.
Format: cell-based
From the text: Conditionally-immortalized human mesencephalon neural precursor cell lines (which may, but need not, be clonal) may generally be induced to differentiate into neurons by inhibiting the expression of the growth-promoting gene (i.e., suppressing the production and/or activity of the growth-promoting protein). For example, if the gene encoding the growth-promoting protein is under the control of an externally-regulatable promoter, the conditions (e.g. temperature or composition of medium) may be modified to suppress transcription of the growth-promoting gene. For the tetracycline-controlled gene expression system discussed above, differentiation may be achieved by the addition of tetracycline to suppress transcription of the growth-promoting gene. In general, 1-5 μg/mL tetracycline for 48 hours is sufficient to begin neuronal morphological differentiation, and the number of differentiated neurons increases during subsequent days. Such differentiation may be performed, for example, by plating the cells on a suitable substrate (e.g., one or a combination of polyamino acid, fibronectin, laminin or tissue culture plastic) in a medium consisting of DMEM/F-12 with N2 supplement and tetracycline (1-5 μg/mL). […] Culture medium may then be refreshed (e.g., every 2-4 days).
An increase in TH expression was also observed for some cell lines, indicating the presence of dopaminergic neurons.
One clone (MESII(1)-C2) was differentiated in DMEM/F-12 with N2 supplement, tetracycline (1 μg/mL), forskolin (10 μM), GDNF (20 ng/mL) and BDNF (20 ng/mL). Following differentiation, a high number of MAP2ab and TH immunoreactive cells were observed. For such immunocytochemistry, cells were fixed with 4% paraformaldehyde, and were incubated with primary antibody in blocking buffer for 2 hours at room temperature, rinsed, and then incubated with a fluorescein (FITC)- or Texas red-conjugated species-specific secondary antibody (Jackson lmmunoresearch Laboratories, Inc., West Grove, Pa.) in blocking buffer for another hour at room temperature. Cultures were then rinsed three times with PBS and coverslipped with PVA/DABCO before scoring and photographing representative fields.

Molecule | enhancement of differentiation by addition to DMEM/F-12 with N2 supplement and tetracycline
BDNF: brain-derived neurotrophic factor | differentiation is enhanced
IGF-I: insulin-like growth factor | differentiation is enhanced
B1 | differentiation is enhanced
B2 | differentiation is enhanced
